Test results published in the supplement of paper PMC10307832.

Experiments:
Experiment in all cases: relative viability (nuclei count vs DMSO), 5 days (fraction); higher = more cells survive
[1] = compound: C1CSC2=C(C(=O)N1)SC3=C2C=C(C=C3)O [kb NB 142-70] + CC(=O)Nc1cccc(-n2c(=O)n(C3CC3)c(=O)c3c(Nc4ccc(I)cc4F)n(C)c(=O)c(C)c32)c1 [Trametinib] (partner 0.02 µM)
Method in brief: (§1)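 Lung cancer cell lines, seeded in 1536-well plates, were treated the following day by pin tool with a single drug or with five library-drug doses (not always all listed) in √10 steps on top of a fixed anchor-drug dose. Cells were fixed and nuclei stained in one step after 5 days, and nuclei were counted. Relative viability is the nuclei count for treated wells divided by that for vehicle wells, reported as medians of duplicate plates.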

[2] = compound: NCC(=O)Nc1ccc(-n2nc(C(F)(F)F)cc2-c2ccc3c(ccc4ccccc43)c2)cc1 + Cc1nc(Nc2ncc(C(=O)Nc3c(C)cccc3Cl)s2)cc(N2CCN(CCO)CC2)n1 [Dasatinib] (partner 0.075 µM)
Method in brief: as §1

[3] = compound: NCC(=O)Nc1ccc(-n2nc(C(F)(F)F)cc2-c2ccc3c(ccc4ccccc43)c2)cc1 + CC1(C)CCC(c2ccc(Cl)cc2)=C(CN2CCN(c3ccc(C(=O)NS(=O)(=O)c4ccc(N[C@H](CCN5CCOCC5)CSc5ccccc5)c(S(=O)(=O)C(F)(F)F)c4)cc3)CC2)C1 [Navitoclax] (partner 0.5 µM)
Method in brief: as §1

[4] = compound: C1CSC2=C(C(=O)N1)SC3=C2C=C(C=C3)O [kb NB 142-70] + CS(=O)(=O)N1CCN(Cc2cc3nc(-c4cccc5[nH]ncc45)nc(N4CCOCC4)c3s2)CC1 [Pictilisib] (partner 1 µM)
Method in brief: as §1

[5] = compound: C1CSC2=C(C(=O)N1)SC3=C2C=C(C=C3)O [kb NB 142-70] + Nc1ncn([C@H]2C[C@H](O)[C@@H](CO)O2)c(=O)n1 [Decitabine] (partner 2 µM)
Method in brief: as §1

Cell Line | relative viability ([1]; first compound 0.1 µM) | relative viability ([1]; first compound 1 µM) | relative viability ([1]; first compound 3.162 µM) | relative viability ([2]; first compound 0.02 µM) | relative viability ([2]; first compound 0.06325 µM) | relative viability ([2]; first compound 0.2 µM) | relative viability ([2]; first compound 0.6325 µM) | relative viability ([2]; first compound 2 µM) | relative viability ([3]; first compound 0.02 µM) | relative viability ([3]; first compound 0.06325 µM) | relative viability ([3]; first compound 0.2 µM) | relative viability ([3]; first compound 0.6325 µM) | relative viability ([3]; first compound 2 µM) | relative viability ([4]; first compound 0.1 µM) | relative viability ([4]; first compound 1 µM) | relative viability ([4]; first compound 3.162 µM) | relative viability ([5]; first compound 0.1 µM) | relative viability ([5]; first compound 1 µM) | relative viability ([5]; first compound 3.162 µM)
HARA | 0.464 | 0.726 | 1.02 | 0.227 | 0.241 | 0.233 | 0.256 | 0.296 | 1.24 | 1.14 | 1.15 | 1.16 | 1.15 | 0.476 | 0.372 | 0.381 | 0.538 | 0.372 | 0.286
NCI-H2087 | 0.18 | 0.263 | 0.194 | 0.862 | 0.854 | 0.928 | 0.762 | 0.904 | 0.849 | 1.11 | 0.939 | 0.969 | 1.03 | 0.905 | 0.75 | 0.576 | 0.277 | 0.245 | 0.189
NCI-H1437 | 0.601 | 0.704 | 0.502 | 0.309 | 0.359 | 0.265 | 0.506 | 0.526 | 1.08 | 1.12 | 1.11 | 1.12 | 1.11 | 0.406 | 0.459 | 0.37 | 0.578 | 0.55 | 0.536
NCI-H1792 | 0.478 | 0.567 | 0.579 | 0.605 |  | 0.915 | 0.836 | 0.726 | 0.694 | 0.722 | 0.617 | 0.693 | 0.617 | 0.323 | 0.269 | 0.396 | 0.536 | 0.536 | 0.458
ChaGo-K-1 | 0.883 | 0.875 | 0.876 | 0.53 | 0.604 | 0.47 | 0.646 | 0.579 | 0.931 | 1.06 | 0.636 | 0.939 | 1.19 | 0.894 | 0.807 | 0.523 | 0.509 | 0.515 | 0.461
COR-L23 | 0.558 | 0.588 | 0.32 | 0.481 | 0.504 | 0.566 | 0.481 | 0.531 | 1.1 | 0.935 | 1.01 | 1.07 | 1 | 0.765 | 0.807 | 0.251 | 0.409 | 0.465 | 0.246
COR-L 105 | 0.452 | 0.426 | 0.448 | 0.388 | 0.426 | 0.362 | 0.418 | 0.413 | 0.817 | 0.947 | 0.649 | 0.841 | 0.703 | 0.376 | 0.392 | 0.37 | 0.68 | 0.576 | 0.589
LK-2 | 0.814 | 0.651 | 0.729 | 0.32 | 0.325 | 0.271 | 0.266 | 0.263 | 1.02 | 0.862 | 0.961 | 0.853 | 0.757 | 0.483 | 0.42 | 0.183 | 0.37 | 0.282 | 0.195
201T | 0.687 | 0.727 | 0.752 | 0.518 | 0.571 | 0.56 | 0.53 | 0.542 | 1.26 | 1.18 | 1.24 | 1.25 | 1.22 | 0.683 | 0.649 | 0.698 | 0.892 | 0.867 | 0.825
NCI-H596 | 0.792 | 0.854 | 0.65 | 0.626 | 0.66 | 0.591 | 0.6 | 0.652 | 0.593 | 0.968 | 1.04 | 1.1 | 0.841 | 0.399 | 0.351 | 0.352 | 0.909 | 1.09 | 0.766
H3255 | 0.585 | 0.602 | 0.593 | 0.477 | 0.343 | 0.348 | 0.337 | 0.347 | 0.481 | 0.578 | 0.594 | 0.482 | 0.457 | 0.469 | 0.45 | 0.437 | 0.623 | 0.591 | 0.629
NCI-H647 | 0.505 | 0.51 | 0.597 | 0.205 | 0.167 | 0.227 | 0.193 | 0.208 | 1.02 | 1.02 | 1.23 | 1.03 | 1.01 | 0.497 | 0.474 | 0.408 | 0.383 | 0.477 | 0.36
NCI-H2023 | 0.52 | 0.559 | 0.566 | 0.649 | 0.549 | 0.618 | 0.6 | 0.552 | 1.05 | 1.12 | 1.01 | 1 | 1.01 | 0.258 | 0.207 | 0.227 | 0.218 | 0.213 | 0.149
NCI-H23 | 0.37 | 0.29 | 0.278 | 0.885 | 0.781 | 0.825 | 0.73 | 0.832 | 0.821 | 0.847 | 0.801 | 0.903 | 0.855 | 0.517 | 0.42 | 0.293 | 0.34 | 0.266 | 0.251
NCI-H1944 | 0.417 | 0.444 | 0.442 | 0.199 | 0.221 | 0.208 | 0.211 | 0.24 | 1.06 | 1.08 | 1.05 | 1.04 | 1.07 | 0.358 | 0.375 | 0.41 | 0.451 | 0.458 | 0.473
NCI-H1793 | 0.399 | 0.542 | 0.463 | 0.352 | 0.431 | 0.391 | 0.404 | 0.411 | 0.529 | 0.446 | 0.395 | 0.411 | 0.416 | 0.313 | 0.379 | 0.386 | 0.487 | 0.544 | 0.3
